Measured values: patent US11834434B2, “Substituted 2-heteroaryloxypyridines and salts thereof and their use as herbicidal agents” (Bayer Aktiengesellschaft, priority 2018, dated 2023)

What was measured:
Assay type in all cases: in vivo
[1] = tested on: Amaranthus retroflexus (AMARE); experiment: Pre-emergence herbicidal action against Amaranthus retroflexus; conditions: 1280 g/ha; scored visually after about 3 weeks vs untreated controls; 100% = plants have died, 0% = like control plants
Excerpt: (§1) Seeds of mono- and dicotyledonous weed plants were placed in plastic pots in sandy loam soil (doubly sown with in each case one species of mono- or dicotyledonous weed plants per pot) and covered with soil. The compounds of the invention, formulated in the form of wettable powders (WP) or as emulsion concentrates (EC), were then applied onto the surface of the covering soil as aqueous suspension or emulsion with addition of 0.5% additive at a water application rate of 600 liters per hectare (converted). After the treatment, the pots were placed in a greenhouse and kept under good growth conditions for the test plants. After about 3 weeks, the effect of the preparations was scored visually in comparison with untreated controls as percentages. For example, 100% activity=the plants have died, 0% activity=like control plants. Tables C1 to C8 below show the effects of selected compounds of the general formula (I) according to Table 1 on various harmful plants and an application rate corresponding to 1280 g/ha, which were obtained by the experimental procedure mentioned above.

[2] = tested on: Setaria viridis (SETVI); experiment: Pre-emergence herbicidal action against Setaria viridis; conditions: 1280 g/ha; scored visually after about 3 weeks vs untreated controls; 100% = plants have died, 0% = like control plants
Excerpt: as §1

[3] = tested on: Amaranthus retroflexus (AMARE); experiment: Post-emergence herbicidal action against Amaranthus retroflexus; conditions: 1280 g/ha; rated visually after about 3 weeks vs untreated controls; 100% = plants have died, 0% = like control plants
Protocol: (§2) Seeds of mono- and dicotyledonous weed plants were placed in plastic pots in sandy loam soil (doubly sown with in each case one species of mono- or dicotyledonous weed plants per pot), covered with soil and cultivated in a greenhouse under controlled growth conditions. 2 to 3 weeks after sowing, the test plants were treated at the one-leaf stage. The compounds of the invention, formulated in the form of wettable powders (WP) or as emulsion concentrates (EC), were applied onto the green parts of the plants as aqueous suspension or emulsion with addition of 0.5% additive at a water application rate of 600 liters per hectare (converted). After the test plants had been kept in the greenhouse under optimum growth conditions for about 3 weeks, the activity of the preparations was rated visually in comparison to untreated controls. For example, 100% activity=the plants have died, 0% activity=like control plants. Tables B1 to B8 below show the effects of selected compounds of the general formula (I) according to Table 1 on various harmful plants and an application rate corresponding to 1280 g/ha, which were obtained by the experimental procedure mentioned above.

[4] = tested on: Stellaria media (STEME); experiment: Pre-emergence herbicidal action against Stellaria media; conditions: 1280 g/ha; scored visually after about 3 weeks vs untreated controls; 100% = plants have died, 0% = like control plants
Excerpt: as §1

[5] = tested on: Echinochloa crus-galli (ECHCG); experiment: Post-emergence herbicidal action against Echinochloa crus-galli; conditions: 1280 g/ha; rated visually after about 3 weeks vs untreated controls; 100% = plants have died, 0% = like control plants
Protocol: as §2

[6] = tested on: Poa annua (POAAN); experiment: Pre-emergence herbicidal action against Poa annua; conditions: 1280 g/ha; scored visually after about 3 weeks vs untreated controls; 100% = plants have died, 0% = like control plants
Excerpt: as §1

[7] = tested on: Stellaria media (STEME); experiment: Post-emergence herbicidal action against Stellaria media; conditions: 1280 g/ha; rated visually after about 3 weeks vs untreated controls; 100% = plants have died, 0% = like control plants
Protocol: as §2

[8] = tested on: Matricaria inodora (MATIN); experiment: Pre-emergence herbicidal action against Matricaria inodora; conditions: 1280 g/ha; scored visually after about 3 weeks vs untreated controls; 100% = plants have died, 0% = like control plants
Excerpt: as §1

[9] = tested on: Echinochloa crus-galli (ECHCG); experiment: Pre-emergence herbicidal action against Echinochloa crus-galli; conditions: 1280 g/ha; scored visually after about 3 weeks vs untreated controls; 100% = plants have died, 0% = like control plants
Excerpt: as §1

[10] = tested on: Abutilon theophrasti (ABUTH); experiment: Post-emergence herbicidal action against Abutilon theophrasti; conditions: 1280 g/ha; rated visually after about 3 weeks vs untreated controls; 100% = plants have died, 0% = like control plants
Protocol: as §2

[11] = tested on: Poa annua (POAAN); experiment: Post-emergence herbicidal action against Poa annua; conditions: 1280 g/ha; rated visually after about 3 weeks vs untreated controls; 100% = plants have died, 0% = like control plants
Protocol: as §2

[12] = tested on: Lolium rigidum (LOLRI); experiment: Pre-emergence herbicidal action against Lolium rigidum; conditions: 1280 g/ha; scored visually after about 3 weeks vs untreated controls; 100% = plants have died, 0% = like control plants
Excerpt: as §1

[13] = tested on: Abutilon theophrasti (ABUTH); experiment: Pre-emergence herbicidal action against Abutilon theophrasti; conditions: 1280 g/ha; scored visually after about 3 weeks vs untreated controls; 100% = plants have died, 0% = like control plants
Excerpt: as §1

Structure (SMILES)	Pre-emergence action against Amaranthus retroflexus (AMARE) [1]	Pre-emergence action against Setaria viridis (SETVI) [2]	Post-emergence action against Amaranthus retroflexus (AMARE) [3]	Pre-emergence action against Stellaria media (STEME) [4]	Post-emergence action against Echinochloa crus-galli (ECHCG) [5]	Pre-emergence action against Poa annua (POAAN) [6]	Post-emergence action against Stellaria media (STEME) [7]	Pre-emergence action against Matricaria inodora (MATIN) [8]	Pre-emergence action against Echinochloa crus-galli (ECHCG) [9]	Post-emergence action against Abutilon theophrasti (ABUTH) [10]	Post-emergence action against Poa annua (POAAN) [11]	Pre-emergence action against Lolium rigidum (LOLRI) [12]	Pre-emergence action against Abutilon theophrasti (ABUTH) [13]
Fc1cnc(Oc2ncccc2Sc2cccc(Cl)c2)nc1 [Example I-158]	100%	90%	100%	100%	100%	90%	100%	–	–	–	–	–	–
COc1c(F)ccc(Cc2c(C)cc(C)nc2Oc2ncc(F)cn2)c1F [Example I-488]	100%	100%	100%	100%	–	100%	100%	100%	100%	100%	90%	100%	100%
Cc1ccc(Cc2c(C)cc(C)nc2Oc2ncc(F)cn2)cc1 [Example I-486]	100%	100%	90%	100%	–	100%	100%	–	100%	90%	100%	90%	100%
Cc1cc(C)c(Cc2ccc(Cl)c(F)c2)c(Oc2ncc(F)cn2)n1 [Example I-485]	100%	100%	100%	100%	–	100%	100%	100%	90%	90%	90%	90%	100%
Cc1ccc(Oc2ccc(Cl)cc2)c(Oc2ncc(Cl)cn2)n1 [Example I-504]	100%	100%	100%	100%	90%	90%	100%	90%	–	–	100%	90%	90%
Cc1ccc(Cc2ccc(F)cc2F)c(Oc2ncc(F)cn2)n1 [Example I-433]	100%	100%	90%	100%	–	100%	100%	100%	100%	90%	100%	90%	100%
Cc1ccc(Oc2ccc(Cl)cc2)c(Oc2ncc(F)cn2)n1 [Example I-515]	100%	100%	100%	100%	100%	100%	100%	100%	100%	–	100%	90%	100%
Cc1ccc(Oc2ccccc2)c(Oc2ncc(F)cn2)n1 [Example I-511]	100%	100%	100%	100%	–	100%	100%	100%	100%	90%	100%	90%	100%
Cc1cc(C)c(Cc2ccc(Cl)cc2)c(Oc2ncc(F)cn2)n1 [Example I-482]	100%	100%	100%	100%	–	100%	100%	100%	100%	90%	100%	100%	100%
Cc1ccc(Cc2ccccc2)c(Oc2ncc(Cl)cn2)n1 [Example I-397]	90%	100%	–	100%	–	100%	100%	100%	100%	90%	100%	100%	100%
Cc1ccnc(Oc2ncccn2)c1Sc1cccc(Cl)c1 [Example I-212]	100%	100%	–	100%	100%	100%	100%	100%	100%	–	100%	100%	100%
Cc1cc(C)c(Cc2ccc(C)c(F)c2)c(Oc2ncc(F)cn2)n1 [Example I-483]	100%	100%	90%	100%	–	100%	100%	100%	90%	90%	90%	90%	100%
